The structures appear in SMILES notation. Counter-ions that a name gives are not always drawn.

The first experiment addresses T1, human TLR3 (hTLR3) (Homo sapiens, UniProt O15455).
T1 construct: expressed in transfected cells
T1 sequence (O15455 24-904): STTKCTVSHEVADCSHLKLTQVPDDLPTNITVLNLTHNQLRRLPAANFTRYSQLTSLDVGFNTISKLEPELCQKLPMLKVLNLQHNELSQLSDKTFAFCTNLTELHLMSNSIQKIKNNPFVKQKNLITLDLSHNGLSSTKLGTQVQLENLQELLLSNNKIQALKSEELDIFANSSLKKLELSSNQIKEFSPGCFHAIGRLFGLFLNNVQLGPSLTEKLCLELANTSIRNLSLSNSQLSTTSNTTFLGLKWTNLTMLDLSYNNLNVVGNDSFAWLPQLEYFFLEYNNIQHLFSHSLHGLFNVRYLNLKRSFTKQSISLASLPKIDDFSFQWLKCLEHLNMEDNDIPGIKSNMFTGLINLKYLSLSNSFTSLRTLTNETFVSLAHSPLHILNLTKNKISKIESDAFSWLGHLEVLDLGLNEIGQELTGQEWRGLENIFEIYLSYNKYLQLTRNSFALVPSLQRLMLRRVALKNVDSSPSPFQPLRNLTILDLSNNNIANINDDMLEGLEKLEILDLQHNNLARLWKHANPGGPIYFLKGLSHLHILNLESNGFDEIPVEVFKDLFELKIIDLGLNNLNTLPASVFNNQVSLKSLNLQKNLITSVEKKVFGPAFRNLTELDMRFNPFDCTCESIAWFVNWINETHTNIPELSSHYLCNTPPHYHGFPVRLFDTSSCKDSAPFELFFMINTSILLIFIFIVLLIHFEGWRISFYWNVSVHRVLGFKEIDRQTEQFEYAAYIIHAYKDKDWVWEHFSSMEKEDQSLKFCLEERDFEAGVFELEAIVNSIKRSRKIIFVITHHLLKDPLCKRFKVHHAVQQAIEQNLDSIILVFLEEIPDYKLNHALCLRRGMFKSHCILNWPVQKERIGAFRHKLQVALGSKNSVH
Nature of the experiment: Antagonist screen, hTLR3-NFκB-293 cells, NF-κB-luciferase reporter, with EC50 of poly(I:C). It is filed as cell-based. The settings on record: compound at 0.5, 5, 50 μg/ml; EC50 concentration of poly(I:C); 16 h; NF-κB-luciferase. The method in brief:
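Scores reflect clear reduction of NF-κB-luciferase signal versus baseline fold induction from EC50 poly(I:C) alone. Compounds tested in duplicate at three final concentrations (0.5, 5, 50 μg/ml) with ligand for 16 h stimulation of hTLR3-NFκB-293 cells plated overnight at 1.5×10^4 per well.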
Background: A reporter such as luciferase makes a cellular process visible.
Turning to `CN1CCc2cccc3c2[C@H]1Cc1ccc(O)c(O)c1-3.Cl` [compound 101, Apomorphinehydrochloride (R, —)], the “hTLR3 (inhibitory effect, antagonist score)” value is “— (compounds for which there was no clear down regulation even at 50 μg/ml)”.

As for `CC(C)(C)c1ccc(C(O)CCCN2CCC(C(O)(c3ccccc3)c3ccccc3)CC2)cc1` (stereo not shown) [compound 138, Terfenadine], the “hTLR3 (inhibitory effect, antagonist score)” value is 11 (compounds for which there was clear down regulation only at 50 μg/ml).

As for `CN(C)C(=O)C(CCN1CCC(O)(c2ccc(Cl)cc2)CC1)(c1ccccc1)c1ccccc1` [compound 144, Loperamidehydrochloride], the “hTLR3 (inhibitory effect, antagonist score)” value was 11 (compounds for which there was clear down regulation only at 50 μg/ml).

With `COc1cc2c(cc1O)C[C@H]1c3c(cc(O)c(OC)c3-2)CCN1C` [compound 600, Boldine], the “hTLR3 (inhibitory effect, antagonist score)” value is “— (compounds for which there was no clear down regulation even at 50 μg/ml)”.

For `CN1CCc2cc3c(c4c2C1Cc1ccccc1-4)OCO3.Cl` (stereo not shown) [compound 669, Remerine hydrochloride], the “hTLR3 (inhibitory effect, antagonist score)” value was “— (compounds for which there was no clear down regulation even at 50 μg/ml)”.

Regarding `COc1cc2nc(N3CCN(C(=O)C4CCCO4)CC3)nc(N)c2cc1OC.Cl` (stereo not shown) [compound 751, Terazosin hydrochloride], the “hTLR3 (inhibitory effect, antagonist score)” value was “— (compounds for which there was no clear down regulation even at 50 μg/ml)”.

As to `COc1cc2nc(N3CCN(C(=O)C4COc5ccccc5O4)CC3)nc(N)c2cc1OC.CS(=O)(=O)O` (stereo not shown) [compound 858, Doxazosin mesylate], the “hTLR3 (inhibitory effect, antagonist score)” value is reported as “— (compounds for which there was no clear down regulation even at 50 μg/ml)”.

As for `CCN(CC)CCCC(C)Nc1nc(/C=C/c2ccc(Cl)cc2)nc2cc3ccccc3cc12` (stereo not shown) [compound 2000], the “hTLR3 (inhibitory effect, antagonist score)” value is 12 (compounds for which there was clear down regulation at 5 μg/ml and 50 μg/ml).

Turning to `CCN(CC)CCCNc1nc(-c2ccccc2)nc2ccccc12` [compound 2001], the “hTLR3 (inhibitory effect, antagonist score)” value is 11 (compounds for which there was clear down regulation only at 50 μg/ml).

Staying with this experiment, now noted: hTLR3-NFκB-293 cells, with EC50 of poly(I:C); compound at 0.5, 5 and 50 μg/ml.
With `COc1cc2cc3c4cc(OC)c(OC)cc4cc[n+]3c(C)c2cc1OC` [compound 431, Coralyne chloridehydrate], the “hTLR3 (inhibitory effect)” value is recorded as “— (compounds for which there was no clear down regulation even at 50 μg/ml)”.

With `COc1ccc(Cc2nccc3cc(OC)c(OC)cc23)cc1OC.Cl` [compound 583, Papaverinehydrochloride], the “hTLR3 (inhibitory effect)” value was “— (compounds for which there was no clear down regulation even at 50 μg/ml)”.

As to `COc1ccc2cc3[n+](cc2c1OC)CCc1cc2c(cc1-3)OCO2.[Cl-]` [compound 586, Berberine chloride], the “hTLR3 (inhibitory effect)” value is reported as 11 (compounds for which there was clear down regulation only at 50 μg/ml).

Regarding `CC[N+](C)(CC)CCC[n+]1c(-c2ccccc2)c2cc(N)ccc2c2ccc(N)cc21.[I-].[I-]` [compound 792, Propidium iodide], the “hTLR3 (inhibitory effect)” value was 12 (compounds for which there was clear down regulation at 5 μg/ml and 50 μg/ml).

Consider `CN(C)CCN(Cc1ccc(Cl)cc1)c1ccccn1.Cl` [compound 807, Chloro-pyraminehydrochloride], for which the “hTLR3 (inhibitory effect)” value is “— (compounds for which there was no clear down regulation even at 50 μg/ml)”.

For the compound `CCOc1ccc(Cc2nccc3cc(OCC)c(OCC)cc23)cc1OCC.Cl` [compound 830, Ethaverinehydrochloride], the “hTLR3 (inhibitory effect)” value was “— (compounds for which there was no clear down regulation even at 50 μg/ml)”.

As to `O=c1c2c(nc(NCCO)n1-c1ccccc1)-c1ccccc1CC21CCCC1` [compound 891], the “hTLR3 (inhibitory effect)” value is reported as 11 (compounds for which there was clear down regulation only at 50 μg/ml).

Take `O=c1c2c(nc(NCCO)n1Cc1ccccc1)-c1ccccc1CC21CCCC1` [compound 926]: the “hTLR3 (inhibitory effect)” value is 12 (compounds for which there was clear down regulation at 5 μg/ml and 50 μg/ml).

Turning to `CN1CCc2c1nc1ccccc1c2N` [compound 990, 1-Methyl-2,3-dihydro-1H-pyrrolo[2,3-b]quinolin-4-ylamine], the “hTLR3 (inhibitory effect)” value is recorded as “— (compounds for which there was no clear down regulation even at 50 μg/ml)”.

For the compound `CN1CCc2c1nc1ccccc1c2NC(=O)CN1CCCCCC1` [compound 1003], the “hTLR3 (inhibitory effect)” value is 11 (compounds for which there was clear down regulation only at 50 μg/ml).

In the case of `Cc1ccc2nc3c(c(N)c2c1)CCN3C` [compound 1091, 1,6-Dimethyl-2,3-dihydro-1H-pyrrolo[2,3-b]quinolin-4-ylamine], the “hTLR3 (inhibitory effect)” value is 11 (compounds for which there was clear down regulation only at 50 μg/ml).

Turning to `Cc1ccc(-n2c(NCCO)nc3c(c2=O)C2(CCCCC2)Cc2ccccc2-3)cc1` [compound 1137], the “hTLR3 (inhibitory effect)” value is 13 (compounds for which there was clear down regulation at 0.5 μg/ml, 5 μg/ml, and 50 μg/ml).

For `CN1CCc2c1nc1ccc(Br)cc1c2N` [compound 1142, 6-Bromo-1-methyl-2,3-dihydro-1H-pyrrolo[2,3-b]quinolin-4-ylamine], the “hTLR3 (inhibitory effect)” value was 11 (compounds for which there was clear down regulation only at 50 μg/ml).

Turning to `O=C1c2ccc(S(=O)(=O)c3ccc4c(c3)C(=O)N(c3ccccn3)C4=O)cc2C(=O)N1c1ccccn1` [compound 1163], the “hTLR3 (inhibitory effect)” value is 11 (compounds for which there was clear down regulation only at 50 μg/ml).

On to `CN1CCCCc2c1nc1ccccc1c2N` [compound 1185, 1-Methyl-2,3,4,5-tetrahydro-1H-azepino[2,3-b]quinolin-6-ylamine], for which the “hTLR3 (inhibitory effect)” value was “— (compounds for which there was no clear down regulation even at 50 μg/ml)”.

As for `CN1CCc2c1nc1ccccc1c2NC(=O)CN1CCN(c2ccccc2)CC1` [compound 1212], the “hTLR3 (inhibitory effect)” value is “— (compounds for which there was no clear down regulation even at 50 μg/ml)”.

Regarding `Cn1c(NN)nc2c(c1=O)C1(CCCC1)Cc1ccccc1-2` [compound 1213], the “hTLR3 (inhibitory effect)” value is on record as “— (compounds for which there was no clear down regulation even at 50 μg/ml)”.

As for `Nc1c2c(nc3ccccc13)N(Cc1ccccc1)CC2` [compound 1217, 1-Benzyl-2,3-dihydro-1H-pyrrolo[2,3-b]quinolin-4-ylamine], the “hTLR3 (inhibitory effect)” value is 12 (compounds for which there was clear down regulation at 5 μg/ml and 50 μg/ml).

Take `CCCCCCN(CCCCCC)CC(=O)Nc1c2c(nc3ccccc13)N(C)CC2` [compound 1224]: the “hTLR3 (inhibitory effect)” value was 12 (compounds for which there was clear down regulation at 5 μg/ml and 50 μg/ml).

Take `O=C(CN1CCCC1)Nc1c2c(nc3ccccc13)N(c1ccccc1)CC2` [compound 1244]: the “hTLR3 (inhibitory effect)” value is reported as 11 (compounds for which there was clear down regulation only at 50 μg/ml).

`NNc1nc2c(c(=O)n1C1CCCC1)C1(CCCC1)Cc1ccccc1-2` [compound 1248]: the “hTLR3 (inhibitory effect)” value is reported as “— (compounds for which there was no clear down regulation even at 50 μg/ml)”.

With `NNc1nc2c(c(=O)n1-c1ccccc1)C1(CCCC1)Cc1ccccc1-2` [compound 1320], the “hTLR3 (inhibitory effect)” value was “— (compounds for which there was no clear down regulation even at 50 μg/ml)”.

As to `O=c1[nH]c(NCCO)nc2c1C1(CCCC1)Cc1ccccc1-2` [compound 1322], the “hTLR3 (inhibitory effect)” value was 11 (compounds for which there was clear down regulation only at 50 μg/ml).

In the case of `CCCCCCCCCCCC(=O)Nc1c2c(nc3ccccc13)N(C)CC2` [compound 1334], the “hTLR3 (inhibitory effect)” value is “— (compounds for which there was no clear down regulation even at 50 μg/ml)”.

Regarding `O=C1c2ccc(Oc3ccc(S(=O)(=O)c4ccc(Oc5ccc6c(c5)C(=O)N(c5ccccn5)C6=O)cc4)cc3)cc2C(=O)N1c1ccccn1` [compound 1367], the “hTLR3 (inhibitory effect)” value was 12 (compounds for which there was clear down regulation at 5 μg/ml and 50 μg/ml).

Source of the values: patent publication US7410975B2, “Small molecule toll-like receptor (TLR) antagonists” (Coley Pharmaceutical Group, Inc., priority 2003, dated 2008).
